Read-outs that look alike come from different tables or passages of the source.
Key:
Assay type in all cases: cell-based
human A2A receptor [1] = target: T1, human A2A receptor (Homo sapiens, UniProt P29274); test: Human T cells, endogenous A2A receptor, cAMP, agonist NECA; settings: read-out: hTcell data, cAMP, IC50
Method: The endogenous functional activity of the Gs-coupled human A2A receptor was measured in T cells, where this receptor is highly expressed. Determination of receptor activity was done by quantification of cAMP, which is a second messenger for adenosine receptors.
In short, human pan T cells were isolated from human PBMC (MACS Pan T Cell Isolation Kit, Miltenyi Biotec) that have been derived from fresh whole blood. The T cells were seeded in 384-well microtiter plates and treated with test compounds. […] Finally, HTRF reagents (cAMP Femto Kit, CisBio) were added to the wells, and after 1 h cellular cAMP levels were determined using the ENVISION (Perkin Elmer) plate reader.
The obtained raw data were normalized against the inhibitor control and the neutral control (DMSO) and the normalized data were fitted using Genedata Screener software.

human A3 receptor = target: T2, human A3 receptor (Homo sapiens, UniProt P0DMS8); test: Functional A3 receptor activity, recombinant CHO cells, cAMP (HTRF), forskolin, agonist IB-MECA
T2 construct: expressed in transfected cells; host or cells: CHO
T2 sequence (P0DMS8 1-318): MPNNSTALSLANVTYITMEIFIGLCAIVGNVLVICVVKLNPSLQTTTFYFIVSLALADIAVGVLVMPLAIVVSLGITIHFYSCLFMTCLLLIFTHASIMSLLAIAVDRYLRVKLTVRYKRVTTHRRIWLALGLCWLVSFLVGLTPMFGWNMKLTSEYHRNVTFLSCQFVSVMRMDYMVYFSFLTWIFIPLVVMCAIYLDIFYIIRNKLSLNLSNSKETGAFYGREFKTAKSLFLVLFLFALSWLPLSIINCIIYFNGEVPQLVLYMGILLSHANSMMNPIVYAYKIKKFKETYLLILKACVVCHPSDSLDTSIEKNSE
Method in brief: (§1)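 Recombinant CHO lines carrying either receptor receive forskolin, compound and the matching agonist, CPA or IB-MECA. After 30 min, HTRF reagents are added and cAMP is quantified. Values are normalized to inhibitor and neutral DMSO controls, then fitted.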

human A2B receptor = target: T3, human A2B receptor (Homo sapiens, UniProt P29275); test: Functional A2B receptor activity, recombinant HEK293 cells, cAMP (HTRF), agonist NECA
T3 construct: expressed in transfected cells; host or cells: HEK293
T3 sequence (P29275 1-332): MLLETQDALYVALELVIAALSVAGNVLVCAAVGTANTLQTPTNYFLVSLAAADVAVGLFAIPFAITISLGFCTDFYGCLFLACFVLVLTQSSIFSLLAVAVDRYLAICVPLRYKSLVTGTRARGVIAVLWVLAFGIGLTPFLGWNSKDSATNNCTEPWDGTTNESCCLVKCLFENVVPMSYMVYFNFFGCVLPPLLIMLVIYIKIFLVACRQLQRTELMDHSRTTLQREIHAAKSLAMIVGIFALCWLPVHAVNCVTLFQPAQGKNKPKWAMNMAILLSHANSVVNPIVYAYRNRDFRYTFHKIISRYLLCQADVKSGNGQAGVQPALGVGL
Method in brief: (§2)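 Cells were seeded, then treated with forskolin, test compound and agonist. After a 30 min incubation, HTRF detection reagents were added and intracellular cAMP was read. Values were scaled between an inhibitor control and DMSO before fitting.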

human A2A receptor [2] = target: T1, human A2A receptor; test: Functional A2A receptor activity, recombinant HEK293 cells, cAMP (HTRF), agonist NECA; design: expressed in transfected cells; host or cells: HEK293
Method in brief: as §2

human A1 receptor = target: T4, human A1 receptor (Homo sapiens, UniProt P30542); test: Functional A1 receptor activity, recombinant CHO cells, cAMP (HTRF), forskolin, agonist CPA
T4 construct: expressed in transfected cells; host or cells: CHO
T4 sequence (P30542 1-326): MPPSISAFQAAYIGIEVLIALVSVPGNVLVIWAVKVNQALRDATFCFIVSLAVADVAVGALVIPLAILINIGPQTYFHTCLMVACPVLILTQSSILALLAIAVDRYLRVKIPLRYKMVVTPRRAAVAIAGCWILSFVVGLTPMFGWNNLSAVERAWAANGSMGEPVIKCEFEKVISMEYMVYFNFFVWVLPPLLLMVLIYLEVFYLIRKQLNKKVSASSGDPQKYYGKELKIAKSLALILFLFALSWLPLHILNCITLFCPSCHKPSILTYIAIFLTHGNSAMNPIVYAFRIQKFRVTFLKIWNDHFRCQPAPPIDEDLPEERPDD
Method in brief: as §1

[3] = recombinant CHO cells, forskolin, agonist IB-MECA, read-out: Functional A3 receptor activity, CHO, cAMP, IC50
[4] = read-out: Functional A2B receptor activity, HEK293, cAMP, IC50
[5] = read-out: Functional A2A receptor activity, HEK293, cAMP, IC50
[6] = recombinant CHO cells, forskolin, agonist CPA, read-out: Functional A1 receptor activity, CHO, cAMP, IC50
[7] = recombinant CHO cells, forskolin, agonist IB-MECA, cAMP, read-out: Functional A3 receptor activity, CHO, cAMP, IC50
[8] = recombinant CHO cells, forskolin, agonist CPA, cAMP, read-out: Functional A1 receptor activity, CHO, cAMP, IC50

T1 sequence (P29274 whole entry): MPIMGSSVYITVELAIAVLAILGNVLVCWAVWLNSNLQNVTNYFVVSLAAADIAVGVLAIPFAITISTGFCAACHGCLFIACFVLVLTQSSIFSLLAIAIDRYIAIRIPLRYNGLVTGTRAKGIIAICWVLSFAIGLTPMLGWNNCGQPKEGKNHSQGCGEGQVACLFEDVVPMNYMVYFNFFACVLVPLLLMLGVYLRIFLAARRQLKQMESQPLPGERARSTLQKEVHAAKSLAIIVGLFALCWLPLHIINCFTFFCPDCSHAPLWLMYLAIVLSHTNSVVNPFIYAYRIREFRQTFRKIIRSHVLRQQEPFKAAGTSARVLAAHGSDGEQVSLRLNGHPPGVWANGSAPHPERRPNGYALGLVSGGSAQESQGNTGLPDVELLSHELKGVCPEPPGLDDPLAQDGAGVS

| Structure (SMILES) | IC50 (human A2A receptor [1]) [nM] | IC50 (human A3 receptor; [3]) [nM] | IC50 (human A2B receptor; [4]) [nM] | IC50 (human A2A receptor [2]; [5]) [nM] | IC50 (human A3 receptor; [7]) [nM] | IC50 (human A1 receptor; [8]) [nM] | also measured |
| --- | --- | --- | --- | --- | --- | --- | --- |
| COc1cnc(N2CCOCC2)c2sc(NC(=O)N3CCC(O)CC3)nc12 | < 1000 |  |  |  |  |  |  |
| COc1ncc(-c2cnn(Cc3cccnc3)c2)c2sc(NC(=O)N3CCC4(CCOCC4)C3)nc12 [Compound 68, 8-Oxa-2-aza-spiro[4.5]decane-2-carboxylic acid [4-methoxy-7-(1-pyridin-3-ylmethyl-1H-pyrazol-4-yl)-thiazolo[4,5-c]pyridin-2-yl]-amide] | < 10 | > 1000 | < 10 | < 10 |  |  |  |
| COc1ncc(C2=CCOCC2)c2sc(NC(=O)c3cnn(-c4ccncc4)c3)nc12 [Compound 157, 1-Pyridin-4-yl-1H-pyrazole-4-carboxylic acid [7-(3,6-dihydro-2H-pyran-4-yl)-4-methoxy-thiazolo[4,5-c]pyridin-2-yl]-amide] |  | > 1000 | < 10 | < 10 |  |  | IC50 (human A1 receptor; [6]): < 1000 nM |
| COc1ncc(-c2cccc(Oc3cccnc3)c2)c2sc(NC(=O)N3CCC4(CCOCC4)C3)nc12 [Compound 160, 8-Oxa-2-aza-spiro[4.5]decane-2-carboxylic acid {4-methoxy-7-[3-(pyridin-3-yloxy)-phenyl]-thiazolo[4,5-c]pyridin-2-yl}-amide] |  | > 1000 | < 10 | < 10 |  |  | IC50 (human A1 receptor; [6]): < 1000 nM |
| COc1ncc(C2=CCOCC2)c2sc(NC(=O)c3c[nH]c(-c4ccccn4)n3)nc12 [Compound 162, 2-Pyridin-2-yl-1H-imidazole-4-carboxylic acid [7-(3,6-dihydro-2H-pyran-4-yl)-4-methoxy-thiazolo[4,5-c]pyridin-2-yl]-amide] |  | > 1000 | < 10 | < 10 |  |  | IC50 (human A1 receptor; [6]): < 1000 nM |
| COc1ncc(C2=CCOCC2)c2sc(NC(=O)c3c[nH]c(-c4ccncc4)n3)nc12 [Compound 165, 2-Pyridin-4-yl-1H-imidazole-4-carboxylic acid [7-(3,6-dihydro-2H-pyran-4-yl)-4-methoxy-thiazolo[4,5-c]pyridin-2-yl]-amide] | < 10 | > 1000 | < 10 | < 10 |  |  |  |
| COc1ncc(-c2cccc(NCc3cocn3)c2)c2sc(NC(=O)N3CCC4(CCOCC4)C3)nc12 [Compound 166, 8-Oxa-2-aza-spiro[4.5]decane-2-carboxylic acid (4-methoxy-7-{3-[(oxazol-4-ylmethyl)-amino]-phenyl}-thiazolo[4,5-c]pyridin-2-yl)-amide] |  | > 1000 | < 100 | < 10 |  |  | IC50 (human A1 receptor; [6]): > 1000 nM |
| COc1ncc(C2=CCOCC2)c2sc(NC(=O)c3cnc(C(=O)O)[nH]3)nc12 [Compound 168, 5-[7-(3,6-Dihydro-2H-pyran-4-yl)-4-methoxy-thiazolo[4,5-c]pyridin-2-ylcarbamoyl]-1H-imidazole-2-carboxylic acid] | < 100 | > 1000 | < 100 | < 10 |  |  |  |
| COc1ncc([C@@H]2COCCO2)c2sc(NC(=O)c3ccc(C(=O)O)cc3)nc12 [Compound 169, N-((R)-7-[1,4]Dioxan-2-yl-4-methoxy-thiazolo[4,5-c]pyridin-2-yl)-terephthalamic acid] |  | > 1000 | < 100 | < 10 |  |  | IC50 (human A1 receptor; [6]): > 1000 nM |
| COc1ncc(I)c2sc(NC(=O)N3CCC4(CCOCC4)C3)nc12 [Compound 171, 8-Oxa-2-aza-spiro[4.5]decane-2-carboxylic acid (7-iodo-4-methoxy-thiazolo[4,5-c]pyridin-2-yl)-amide] |  | > 1000 | < 100 | < 100 |  |  | IC50 (human A1 receptor; [6]): > 1000 nM |
| COc1ccc(-c2ccccc2)c2sc(NC(=O)NCCN3CCCCC3)nc12 [drawing 187, reference compound] |  |  | > 1000 | < 100 | > 1000 | > 1000 |  |
| COc1cnc(N2CCOCC2)c2sc(NC(=O)N3CCC(CO)CC3)nc12 [drawing 188, reference compound] |  |  | < 1000 | < 10 | > 1000 | > 1000 |  |
| COc1cnc(N2CCOCC2)c2sc(NC(=O)N3CCC4(CCCO4)CC3)nc12 [drawing 189, reference compound] |  |  | < 1000 | < 10 | > 1000 | > 1000 |  |
| COc1cnc(C2CCOCC2)c2sc(NC(=O)N3CCC(O)CC3)nc12 [drawing 190, reference compound] |  |  | < 1000 | < 100 | < 1000 | > 1000 |  |
| COc1ccc(N2CCOCC2)c2sc(NC(=O)N3CCCCC3)nc12 [drawing 191, reference compound] |  |  | < 1000 | < 10 | < 1000 | > 1000 |  |
| COc1cnc(N2CCOCC2)c2sc(NC(=O)N3CCCCC3)nc12 [drawing 192, reference compound] |  |  | < 1000 | < 10 | < 100 | > 1000 |  |
| COc1cnc(N2CCOCC2)c2sc(NC(=O)N3CCOCC3)nc12 [drawing 193, reference compound] |  |  | < 1000 | < 10 | < 1000 | > 1000 |  |
| COc1cnc(N2CCOCC2)c2sc(NC(=O)N3CCC4(CCN(C)C4=O)CC3)nc12 [drawing 215] | < 1000 |  |  |  |  |  |  |
| COc1ccc(-c2ccccc2)c2sc(NC(=O)NCCN3CCCCC3)nc12 [drawing 216] | < 1000 |  |  |  |  |  |  |
| COc1cnc(N2CCOCC2)c2sc(NC(=O)N3CCC(CO)CC3)nc12 [drawing 217] | < 1000 |  |  |  |  |  |  |
| COc1cnc(N2CCOCC2)c2sc(NC(=O)N3CCC4(CCCO4)CC3)nc12 [drawing 218] | < 1000 |  |  |  |  |  |  |
| COc1ccc(N2CCOCC2)c2sc(NC(=O)N3CCC4(CCCO4)CC3)nc12 [drawing 219] | < 1000 |  |  |  |  |  |  |
| COc1ccc(N2CCOCC2)c2sc(NC(=O)N3CCCCC3)nc12 [drawing 221] | < 1000 |  |  |  |  |  |  |
| COc1cnc(N2CCOCC2)c2sc(NC(=O)N3CCCCC3)nc12 [drawing 222] | < 1000 |  |  |  |  |  |  |
| COc1cnc(N2CCOCC2)c2sc(NC(=O)N3CCOCC3)nc12 [drawing 223] | < 1000 |  |  |  |  |  |  |
| COc1ccc(C2CCOCC2)c2sc(NC(=O)N3CCC4(CC3)OCCO4)nc12 [reference compound] |  |  |  |  |  |  | IC50 (human A3 receptor): > 1000 nM; IC50 (human A2B receptor): < 1000 nM; IC50 (human A1 receptor): > 1000 nM; IC50 (human A2A receptor [2]): < 10 nM |
| COc1ccc(C2CCOCC2)c2sc(NC(=O)N3CCOCC3)nc12 [reference compound] |  |  | < 1000 | < 10 | > 1000 | < 1000 |  |
| COc1ccc(N2CCOCC2)c2sc(NC(=O)N3CCOCC3)nc12 [reference compound] |  |  | < 1000 | < 10 | > 1000 | > 1000 |  |
| COc1ccc(-c2cnn(C)c2)c2sc(NC(=O)N3CCC(C)(O)CC3)nc12 [reference compound] |  |  | < 1000 | < 10 | < 1000 | < 1000 |  |
| COc1ccc(-c2cnn(C)c2)c2sc(NC(=O)c3ccnc(N4CCOCC4)c3)nc12 [reference compound] |  |  | < 1000 | < 10 | < 1000 | < 1000 |  |

Source: patent US12344623B2, “Thiazolopyridine derivatives as adenosine receptor antagonists” (Merck Patent GmbH, priority 2019, dated 2025)
